US20020013306A1, “TERPYRIDINE-PLATINUM(II) COMPLEXES” (priority 1996, published 2002)
pIC50: −log10 of the molar value. “And” between values parts separate entries of the source, which are not always exact repeats. Equal values may be shown once. Read-outs that look alike come from different tables or passages of the source.

What was measured:
[1] = Acid/base stability by NMR; conditions: diethylamine in deuterated chloroform; directly afterwards and after 20 hours
Protocol: Diethylamine (2 ml) was added to a solution of 4′-aziridinoterpyridine (5 mg) in deuterated chloroform in a NMR tube.
NMR spectra were recorded immediately and after 1, 2, 4 and 24 hours.

[2] = system: CH1 human ovarian carcinoma cell line; experiment: 96 h growth inhibition, sulforhodamine B assay, CH1; type: cell-based; conditions: 96 h exposure, v = variable (mean)
[3] = system: T. brucei (S427) bloodstream trypomastigotes; experiment: Trypanosoma brucei bloodstream trypomastigote culture; type: cell-based
DNA [4] = experiment: Fluorescence spectroscopy, ethidium bromide displacement; type: binding
Source text: (§1) The double positive charge on 4-picoline-2,2′:6′,2″-terpyridine-platinum(II), together with the intercalative binding mode is probably responsible for the large binding constant.

[5] = system: A2780cis^R human ovarian carcinoma cell line (cisplatin resistant); experiment: 96 h growth inhibition, sulforhodamine B assay, A2780cisR; type: cell-based; conditions: for pIC50: 96 h exposure, growth inhibition, v = variable (mean); for RF resistance factor: IC50 resistant line/IC50 parent line: A2780cis^R / A2780
[6] = system: CH1dox^R human ovarian carcinoma cell line (doxorubicin resistant); experiment: 96 h growth inhibition, sulforhodamine B assay, CH1doxR; type: cell-based; conditions: for pIC50: 96 h exposure, growth inhibition; for RF resistance factor: IC50 resistant line/IC50 parent line: CH1dox^R / CH1
[7] = system: CH1cis^R human ovarian carcinoma cell line (cisplatin resistant); experiment: 96 h growth inhibition, sulforhodamine B assay, CH1cisR; type: cell-based; conditions: for pIC50: 96 h exposure, growth inhibition, v = variable (mean); for RF resistance factor: IC50 resistant line/IC50 parent line: CH1cis^R / CH1
[8] = system: SKOV3 human ovarian carcinoma cell line; experiment: 96 h growth inhibition, sulforhodamine B assay, SKOV3; type: cell-based; conditions: 96 h exposure, v = variable (mean)
T. cruzi (MHOM/BR/00/Y) = experiment: Trypanosoma cruzi in mouse peritoneal macrophages; type: cell-based
Protocol: Trypanosoma cruzi: […] Drug activity was determined from the % of infected macrophages in treated cultures. Nifurtimox was used as the positive control.

DNA [9] = experiment: Ligation assay (DNA unwinding); type: binding
Source text: as §1

[10] = system: A2780 human ovarian carcinoma cell line; experiment: 96 h growth inhibition, sulforhodamine B assay, A2780; type: cell-based; conditions: 96 h exposure, v = variable (mean)
[11] = Single intraperitoneal injection toxicity in tumour-bearing mice (ADJ/PC6); type: in vivo
Protocol: Compound (A) was also administered as a single intraperitoneal injection in water to mice bearing subcutaneously implanted tumours e.g. ADJ/PC6 (according to the standard protocol for evaluating platinum complexes).

[12] = system: CHl human ovarian carcinoma subcutaneously implanted xenograph; experiment: CH1 human ovarian carcinoma xenograft in vivo
Protocol: In view of the in vitro results, compound (A) was investigated in vivo using the CHl human ovarian carcinoma subcutaneously implanted xenograph. The compound was administered intraperitoneally at weekly intervals for 4 weeks. Two dose levels were used; 30 and 60 mg/kg. Tumours were approximately 6-8 mm maximum diameter at the beginning of treatment. […] Two endpoints were determined, the 28 day T/C (the ratio of Treated versus Control volumes at day 28 post initial treatment) and the growth delay (GD: the difference in time taken for Treated versus Control groups to double in volume).
At the lower dose there was a growth delay (GD) 83.1. […] It seems likely that by using a still lower and more frequent drug schedule (e.g. daily) greater control over tumour growth could be achieved.

polyfd(A-T)2) = experiment: Circular dichroism equilibrium binding
Source text: as §1

calf-thymus (ct)-DNA = conditions: literature [1]-[3]; cited from earlier work
[13] = system: P falciparum (chloroquin resistant strain K1); experiment: In vitro antimalarial activity, chloroquine resistant K1; conditions: for % Inhibition (compound duplicates), K1 P. falciparum: duplicates (1),(2)
Protocol: Plasmodium falciparum: P falciparum (chloroquin resistant strain K1) was cultured at 37° C. in a 5% suspension of infected so erythrocytes (group A Rh^+) in complete medium as described by E L Elueze, S L Croft and D C Warhurst, J Antimicrobial Chemotherapy, 1996, 37, 511-518. The in vitro antimalarial activity of compounds were likewise determined according to their protocol. Mefloquin was used as the positive control.”

[14] = deuterated water; NMR immediately, 1, 2, 17 hours, one and two weeks
Protocol: A solution of (4-picoline) (4′-aziridinoterpyridine) platinum (II) tetrafluoroborate in deuterated water was prepared. NMR spectra were recorded immediately, after 1, 2 and 17 hours, then after one and two weeks.

[15] = read-out: IC50 (avg), K1 P. falciparum, average of duplicates

Row | Compound | pIC50 [2] | % Inhibition, Trypanosoma brucei ([3]; 0.1 μM) [%] | % Inhibition, Trypanosoma brucei ([3]; 0.3 μM) [%] | % Inhibition, Trypanosoma brucei ([3]; 1 μM) [%] | % Inhibition, Trypanosoma brucei ([3]; 3 μM) [%] | % Inhibition, Trypanosoma brucei ([3]; 10 μM) [%] | % Inhibition, Trypanosoma brucei ([3]; 30 μM) [%] | pIC50 [5] | pIC50 [6] | RF resistance factor: IC50 resistant line/IC50 parent line [6] | pIC50 [7] | RF resistance factor: IC50 resistant line/IC50 parent line [7] | pIC50 [8] | % Inhibition, Trypanosoma cruzi (T. cruzi (MHOM/BR/00/Y); 30 μM) [%] | pIC50 [10] | RF resistance factor: IC50 resistant line/IC50 parent line [5] | % Inhibition, Trypanosoma cruzi (T. cruzi (MHOM/BR/00/Y); 1 μM) [%] | % Inhibition, Trypanosoma cruzi (T. cruzi (MHOM/BR/00/Y); 3 μM) [%] | % Inhibition, Trypanosoma cruzi (T. cruzi (MHOM/BR/00/Y); 10 μM) [%] | further results
1 | c1ccc(-c2cc(N3CC3)cc(-c3ccccn3)n2)nc1 [4′-aziridinoterpyridine, 4′-Aziridino-2,2′:6′,2″-Terpyridine] | – | – | – | – | – | – | – | – | – | – | – | – | – | – | – | – | – | – | – | stability to base [1]: No change in the NMR spectrum
2 | Cc1ccncc1.F[B-](F)(F)F.F[B-](F)(F)F.[Pt+2].c1ccc(-c2cccc(-c3ccccn3)n2)nc1 [A, 4-picoline-2,2′:6′:2″-terpyridine-platinum(II) tetrafluoroborate] | 4.85 | 100 | 100 | 100 | 100 | 100 | 100 | < 4.00 | 5.36 | 0.3 | 4.96 | 0.8 | 4.70 | 100 | 4.77 | – | – | – | – | % Inhibition, Trypanosoma brucei ([3]; 0.03 μM): 83.3%; displacement of ethidium bromide bound to DNA (DNA [4]): displaces ethidium bromide bound to DNA; DNA unwinding / intercalation in ligation assay (DNA [9]): unwind and so intercalate into DNA; toxicity, single intraperitoneal injection ([11]; 50 mg/kg in water): no toxic affect; toxicity, single intraperitoneal injection ([11]; 100 mg/kg in water): toxic; LD50 ([11]; single intraperitoneal injection): approximately 70 mg/kg; growth delay (GD) ([12]; 30 mg/kg (lower dose) intraperitoneally, weekly for 4 weeks): 83.1; local peritoneal organ damage ([12]; 60 mg/kg (higher dose) i.p. weekly for 4 weeks): evidence, of local peritoneal organ damage; deaths due to drug toxicity ([12]; 30 and 60 mg/kg i.p. weekly for 4 weeks): no deaths due to drug toxicity; effect on tumour growth (Relative Tumour Volume) ([12]; 30 and 60 mg/kg i.p. weekly for 4 weeks, especially at the lower dose): induces a growth inhibitory effect; equilibrium binding constant, second binding mode (polyfd(A-T)2); site size of about 2 base pairs): about 1×10^6 M^−1; equilibrium binding constant, most stable binding mode (polyfd(A-T)2); site size of about 4 base pairs): approximately 2×10^7 M^−1
3 | [Cl-].[Cl-].[Pt+2].c1ccc(-c2cccc(-c3ccccn3)n2)nc1 [Compound A13, chloro(2,2′:6′,2″-terpyridine)platinum(II) chloride] | 5.18 | 26.2 | 100 | 100 | 100 | 100 | 100 | 4.39 | 5.43 | 0.6 | 5.19 | 1 | 4.71 | 99.3 | 4.31 | 0.8 | 52.0 | 76.0 | 99.0 | binding association constant with ct-DNA (calf-thymus (ct)-DNA): essentially the same binding constant
4 | Cc1cc[n+]([Pt-2]23[n+]4ccccc4-c4cc(Cl)cc([n+]42)-c2cccc[n+]23)cc1.F[B-](F)(F)F.F[B-](F)(F)F [I] | 5.20 | 99.2 | 83.8 | 100 | 100 | 100 | 100 | 4.84 | 6.37 | 0.07 | 5.19 | 1 | 5.25 | 100 | 4.84 | 1 | 59.7 | 73.5 | 97.0 | % Inhibition (compound duplicates), K1 P. falciparum ([13]; Concn. 15 μM): 14.2% and 9.4%; % Inhibition (compound duplicates), K1 P. falciparum ([13]; Concn. 30 μM): 93.2% and 90.9%; % Inhibition (compound duplicates), K1 P. falciparum ([13]; Concn. 75 μM): 1.9% and 2.1%; % Inhibition (compound duplicates), K1 P. falciparum ([13]; Concn. 375 μM): 0%; % Inhibition (compound duplicates), K1 P. falciparum ([13]; Concn. 1875 μM): 0%; % Inhibition (compound duplicates), K1 P. falciparum ([13]; Concn. 09375 μM): 0%; % Inhibition (compound duplicates), K1 P. falciparum ([13]; Concn. 046875 μM): 0%; % Inhibition (compound duplicates), K1 P. falciparum ([13]; Concn. 0234375 μM): 0%; pIC50 [13, 15]: 4.69; pIC50 ([13]; read-out: IC50, K1 P. falciparum, each duplicate (1),(2)): 4.70 and 4.67
5 | Cc1cc[n+]([Pt-2]23[n+]4ccccc4-c4cc(-c5ccc(Br)cc5)cc([n+]42)-c2cccc[n+]23)cc1.F[B-](F)(F)F.F[B-](F)(F)F [Q] | 5.30 | 0 | 100 | 100 | 100 | 100 | 100 | 4.53 | 5.98 | 0.2 | 5.24 | 1.2 | < 4.00 | – | 4.41 | 0.8 | – | – | – | % Inhibition (compound duplicates), K1 P. falciparum ([13]; Concn. 15 μM): 97.0%; % Inhibition (compound duplicates), K1 P. falciparum ([13]; Concn. 30 μM): 99.8%; % Inhibition (compound duplicates), K1 P. falciparum ([13]; Concn. 75 μM): 98.6%; % Inhibition (compound duplicates), K1 P. falciparum ([13]; Concn. 375 μM): 60.8%; % Inhibition (compound duplicates), K1 P. falciparum ([13]; Concn. 1875 μM): 46.1%; % Inhibition (compound duplicates), K1 P. falciparum ([13]; Concn. 09375 μM): 0%; % Inhibition (compound duplicates), K1 P. falciparum ([13]; Concn. 046875 μM): 0%; % Inhibition (compound duplicates), K1 P. falciparum ([13]; Concn. 0234375 μM): 0%; pIC50 [13, 15]: 5.62
6 | Cc1ccncc1.F[B-](F)(F)F.F[B-](F)(F)F.[Pt+2].c1ccc(-c2cc(N3CC3)cc(-c3ccccn3)n2)nc1 [T, (4-Picoline)(4′-Aziridino-2,2′:6′,2″-Terpyridine) Platinum (II) Tetra-fluoroborate] | 5.34 | 54.2 | 78.9 | 100 | 100 | 100 | 100 | 4.70 | 5.38 | – | 5.43 | – | 4.72 | 0 | 5.11 | – | 0 | 0 | 0 | stability in aqueous solution [14]: stable to nucleophilic attack by water under neutral conditions
7 | CN(NC(=O)CCCCC(=O)NN(C)c1cc(-c2ccccn2)nc(-c2ccccn2)c1)c1cc(-c2ccccn2)nc(-c2ccccn2)c1.Cc1ccncc1.Cc1ccncc1.F[B-](F)(F)F.F[B-](F)(F)F.F[B-](F)(F)F.F[B-](F)(F)F.[Pt+2].[Pt+2] [W, Adipoyl-Linked-Bis[4-Picoline(4′-(1 -Methylhydrazino)-2,2′:6′,2″-Terpyridine) Platinum(II)] Tetrafluoroborate] | 4.32 | 0 | 0 | 0 | 0 | 59.8 | 100 | 4.98 | 4.24 | 1.2 | 4.34 | 0.9 | < 4.00 | 8.3 | 4.77 | 0.6 | 0 | 0 | 0 | –
8 | hydroxyethanethiol-2,2′:6′,2″-terpyridine-platinum(II) [1,R═SCH2CH2OH, reference compound] | – | – | – | – | – | – | – | – | – | – | – | – | – | – | – | – | – | – | – | binding association constant with ct-DNA (calf-thymus (ct)-DNA): 83000 M⁻¹
